From patent US20070276022A1, “Optically Active Carboxamides” (priority 2003, published 2007)

What was measured:
Type in all cases: in vivo
[1] = tested on: Podosphaera leucotricha; experiment: Podosphaera test (apple)/protective; settings: protective, evaluation 10 days after inoculation
Experimental: (§1) For the production of an appropriate active compound preparation 1 part by weight of active compound is mixed with the given amount of solvent and emulsifier and the concentrate is diluted to the desired concentration with water.
For the investigation for the protective activity young plants are sprayed with the active compound preparation in the amount specified. After drying of the spray coating the plants are inoculated with an aqueous spore suspension of the apple mildew pathogen Podosphaera leucotricha. The plants are then placed in a greenhouse at ca. 23° C. and a relative humidity of ca. 70%.
(§2) Evaluation is carried out 10 days after the inoculation. A level of activity of 0% corresponds to the level of activity of the control, whereas a level of activity of 100% means that no infestation is observed.

[2] = tested on: Sphaerotheca fuliginea; experiment: Sphaerotheca test (cucumber)/protective; settings: protective, evaluation 7 days after inoculation
Experimental: as §1
For the investigation of the protective activity young cucumber plants are sprayed with the active compound preparation in the amount specified. After drying of the spray coating the plants are inoculated with an aqueous spore suspension of Sphaerotheca fuliginea. The plants are then placed in a greenhouse at ca. 23° C. and a relative humidity of ca. 70%.
Evaluation is carried out 7 days after the inoculation. A level of activity of 0% corresponds to the level of activity of the control, whereas a level of activity of 100% means that no infestation is observed.

[3] = tested on: Venturia inaequalis; experiment: Venturia test (apple)/protective; settings: protective, evaluation 10 days after inoculation
Experimental: as §1
For the investigation of the protective activity young plants are sprayed with the active compound preparation in the amount specified. After drying of the spray coating the plants are inoculated with an aqueous conidial suspension of the apple scab pathogen Venturia inaequalis then left for 1 day in an incubator at ca. 20° C. and a relative humidity of 100%.
The plants are then placed in a greenhouse at ca. 21° C. and a relative humidity of ca. 90%.
as §2

[4] = tested on: Botrytis cinera; experiment: Botrytis test (bean)/protective; settings: protective, evaluation 2 days after inoculation
Experimental: as §1
For the investigation the protective activity young plants are sprayed with the active compound preparation in the amount specified. After drying of the spray coating 2 small pieces of agar coated with Botrytis cinera are placed on each leaf. The inoculated plants are then placed in a darkened room at ca 20° C. and a relative humidity of 100%.
The size of the infestation spots on the leaves are evaluated 2 days after the inoculation. A level of activity of 0% corresponds to the level of activity of the control, whereas a level of activity of 100% means that no infestation is observed.

[5] = tested on: Alternaria solani; experiment: Alternaria test (tomato)/protective; settings: protective, 50 g/ha, evaluation 3 days after inoculation
Experimental: as §1
For the investigation of the protective activity young plants are sprayed with the active compound preparation in the amount specified. After drying of the spray coating the plants are inoculated with an aqueous spore suspension of Alternaria solani. The plants are then placed in an incubator at ca. 20° C. and a relative humidity of 100%.
Evaluation is carried out 3 days after the inoculation. A level of activity of 0% corresponds the level of activity of the control, whereas a level of activity of 100% means that no infestation is observed.

With `CC(C)C[C@H](C)c1ccccc1NC(=O)c1ccccc1C(F)(F)F` [drawing 39] the “Level of activity in %” value ([1]; 50 g/ha) was 100%.

In the case of `CC(C)C[C@@H](C)c1ccccc1NC(=O)c1ccccc1C(F)(F)F` [drawing 40], the “Level of activity in %” value ([1]; 50 g/ha) is reported as 20%.

`CC(C)C[C@H](C)c1ccccc1NC(=O)c1cn(C)cc1C(F)(F)F` [drawing 41] was tested, and the “Level of activity in %” value ([1]; 12.5 g/ha) was 98%.

In the case of `CC(C)C[C@@H](C)c1ccccc1NC(=O)c1cn(C)cc1C(F)(F)F` [drawing 42], the “Level of activity in %” value ([1]; 12.5 g/ha) is reported as 28%.

For `Cc1nn(C)c(F)c1C(=O)Nc1ccccc1[C@H](C)CC(C)C` [drawing 44], the “Level of activity in %” value ([2]; 25 g/ha) was 7%.

In the case of `Cc1nn(C)c(F)c1C(=O)Nc1ccccc1[C@@H](C)CC(C)(C)C` [drawing 45], the “Level of activity in %” value ([2]; 25 g/ha) is reported as 94%.

`Cc1nn(C)c(F)c1C(=O)Nc1ccccc1[C@H](C)CC(C)(C)C` [drawing 46] was tested, and the “Level of activity in %” value ([2]; 25 g/ha) was 0%.

`Cc1nn(C)c(F)c1C(=O)Nc1ccccc1[C@@H](C)CC(C)C` [drawing 47] was tested, and the “Level of activity in %” value ([2]; 25 g/ha) was 96%.

`CC(C)C[C@H](C)c1ccccc1NC(=O)c1ccccc1I` [drawing 51] was tested, and the “Level of activity in %” value ([2]; 25 g/ha) was 85%.

`CC(C)C[C@@H](C)c1ccccc1NC(=O)c1ccccc1I` [drawing 52] was tested, and the “Level of activity in %” value ([2]; 25 g/ha) was 15%.

`CC(C)C[C@H](C)c1sccc1NC(=O)c1cn(C)nc1C(F)(F)F` [drawing 53] was tested, and the “Level of activity in %” value ([2]; 3.125 g/ha) was 98%.

In the case of `CC(C)C[C@@H](C)c1sccc1NC(=O)c1cn(C)nc1C(F)(F)F` [drawing 54], the “Level of activity in %” value ([2]; 3.125 g/ha) is reported as 35%.

With `CC(C)C[C@H](C)c1ccccc1NC(=O)c1cn(C)cc1C(F)(F)F` [drawing 55] the “Level of activity in %” value ([2]; 50 g/ha) was 91%.

In the case of `CC(C)C[C@@H](C)c1ccccc1NC(=O)c1cn(C)cc1C(F)(F)F` [drawing 56], the “Level of activity in %” value ([2]; 50 g/ha) is reported as 23%.

With `Cc1nn(C)c(F)c1C(=O)Nc1ccccc1[C@@H](C)CC(C)C` [drawing 57] the “Level of activity in %” value ([3]; 25 g/ha) was 100%.

`Cc1nn(C)c(F)c1C(=O)Nc1ccccc1[C@H](C)CC(C)C` [drawing 58] was tested, and the “Level of activity in %” value ([3]; 25 g/ha) was 21%.

`Cc1nn(C)c(F)c1C(=O)Nc1ccccc1[C@@H](C)CC(C)(C)C` [drawing 59] was tested, and the “Level of activity in %” value ([3]; 25 g/ha) was 100%.

In the case of `Cc1nn(C)c(F)c1C(=O)Nc1ccccc1[C@H](C)CC(C)(C)C` [drawing 60], the “Level of activity in %” value ([3]; 25 g/ha) is reported as 0%.

`CC(C)C[C@H](C)c1ccccc1NC(=O)c1ccccc1C(F)(F)F` [drawing 61] was tested, and the “Level of activity in %” value ([3]; 25 g/ha) was 100%.

With `CC(C)C[C@@H](C)c1ccccc1NC(=O)c1ccccc1C(F)(F)F` [drawing 62] the “Level of activity in %” value ([3]; 25 g/ha) was 0%.

In the case of `CC(C)C[C@H](C)c1ccccc1NC(=O)c1ccccc1I` [drawing 63], the “Level of activity in %” value ([3]; 25 g/ha) is reported as 100%.

In the case of `CC(C)C[C@@H](C)c1ccccc1NC(=O)c1ccccc1I` [drawing 64], the “Level of activity in %” value ([3]; 25 g/ha) is reported as 16%.

With `CC(C)C[C@H](C)c1sccc1NC(=O)c1cn(C)nc1C(F)(F)F` [drawing 65] the “Level of activity in %” value ([3]; 3.125 g/ha) was 100%.

In the case of `CC(C)C[C@@H](C)c1sccc1NC(=O)c1cn(C)nc1C(F)(F)F` [drawing 66], the “Level of activity in %” value ([3]; 3.125 g/ha) is reported as 7%.

For `CC(C)C[C@H](C)c1ccccc1NC(=O)c1cn(C)cc1C(F)(F)F` [drawing 67], the “Level of activity in %” value ([3]; 50 g/ha) was 100%.

`CC(C)C[C@@H](C)c1ccccc1NC(=O)c1cn(C)cc1C(F)(F)F` [drawing 68] was tested, and the “Level of activity in %” value ([3]; 50 g/ha) was 20%.

With `Cc1nn(C)c(F)c1C(=O)Nc1ccccc1[C@@H](C)CC(C)C` [drawing 69] the “Level of activity in %” value ([4]; 250 g/ha) was 100%.

`Cc1nn(C)c(F)c1C(=O)Nc1ccccc1[C@H](C)CC(C)C` [drawing 70] was tested, and the “Level of activity in %” value ([4]; 250 g/ha) was 29%.

In the case of `Cc1nn(C)c(F)c1C(=O)Nc1ccccc1[C@@H](C)CC(C)(C)C` [drawing 71], the “Level of activity in %” value ([4]; 250 g/ha) is reported as 100%.

`Cc1nn(C)c(F)c1C(=O)Nc1ccccc1[C@H](C)CC(C)(C)C` [drawing 72] was tested, and the “Level of activity in %” value ([4]; 250 g/ha) was 14%.

For `CC(C)C[C@H](C)c1ccccc1NC(=O)c1ccccc1C(F)(F)F` [drawing 73], the “Level of activity in %” value ([4]; 250 g/ha) was 90%.

In the case of `CC(C)C[C@@H](C)c1ccccc1NC(=O)c1ccccc1C(F)(F)F` [drawing 74], the “Level of activity in %” value ([4]; 250 g/ha) is reported as 18%.

With `CC(C)C[C@H](C)c1ccccc1NC(=O)c1ccccc1I` [drawing 75] the “Level of activity in %” value ([4]; 250 g/ha) was 86%.

For `CC(C)C[C@@H](C)c1ccccc1NC(=O)c1ccccc1I` [drawing 76], the “Level of activity in %” value ([4]; 250 g/ha) was 0%.

In the case of `CC(C)C[C@H](C)c1ccccc1NC(=O)c1cn(C)cc1C(F)(F)F` [drawing 77], the “Level of activity in %” value ([4]; 62.5 g/ha) is reported as 100%.

With `CC(C)C[C@@H](C)c1ccccc1NC(=O)c1cn(C)cc1C(F)(F)F` [drawing 78] the “Level of activity in %” value ([4]; 62.5 g/ha) was 50%.

For `CC(C)C[C@H](C)c1ccccc1NC(=O)c1cn(C)cc1C(F)(F)F` [drawing 79], the “Level of activity in %” value [5] was 83%.

In the case of `CC(C)C[C@@H](C)c1ccccc1NC(=O)c1cn(C)cc1C(F)(F)F` [drawing 80], the “Level of activity in %” value [5] is reported as 30%.
